Laboratory results taken from paper PMC6591174, “The beneficial androgenic action of steroidal aromatase inactivators in estrogen-dependent breast cancer after failure of nonsteroidal drugs” (Cell Death & Disease, 2019).

How the values were obtained:
MCF-7 cells = test: Cell proliferation assay (CCK8), MCF-7; type: cell-based, human; conditions: for proliferation of MCF-7 cells: 1 nM-10 μM, 6 days, 10% PRF-CT with 1 nM E2; for antiproliferative effect in presence of OH-Flutamide, MCF-7: 100 nM compound with 100 nM OH-Flutamide
Description: (§1) Fig. 2 Proliferative response of cancer cells to indicated compounds. a–c the effect of concentrations of different compounds on the growth of the cells. […] Cell growth was measured as described in the “Materials and methods”. The proliferation of cells is expressed as the ratio of the cells compared with the control wells (untreated cells). d, e Influence of different compounds on the cell cycle of MCF-7 cells. MCF-7 cells were cultured in 10% PRF-CT with E2 (1 nM) for 3 days before plating. Cells were seeded in six-well plates and, the next day, starved in PRF for 24 h. Cells were exposed to different compounds at a concentration of 100 nM for 72 h, and then subjected to cell-cycle analysis as described in “Materials and methods”. f MCF-7 cells on poly-L-lysine-coated glass coverslips were exposed to compounds (100 nM) in 10% PRF-CT with 1 nM E2 for 72 h. Control cells were treated with vehicle. DAPI stains DNA, and the secondary anti-mouse antibody to detect the antibody bound to Ki-67 is labeled with the cyanine dye Cy3. The cells were stained with DAPI (blue). Immunofluorescence staining of Ki-67 of cells was observed using fluorescence microscope. Red: Ki-67; blue: nucleus.Typical image is shown. Scale bars: 10 μm. Data represent a mean ± SEM of three independent experiments, each in triplicate; bars, SEM. *P ≤ 0.05 vs. control
(§2) After 24 h, cells were exposed for 3–6 days to various concentrations of compounds (1 nM– 10 μM) or left untreated. The incubation time and the compounds concentrations were chosen based on previous studies[17],[32]–[34]. The effects of the various drugs on cell proliferation at the indicated concentrations (1 nM– 10 μM) were determined by using a CCK8 kit (Dojindo Laboratories, Kumamoto, Japan) according to the manufacturer’s protocol. The absorbance at 450 nm was measured by using a Versamax microplate reader (Thermo Varioskan Flash, USA). Cell growth is expressed as the ratio of the cells compared with the control wells (untreated cells).

[1] = system: DMBA-induced mammary carcinoma; test: DMBA-induced mammary carcinoma, topical treatment; type: in vivo, female Sprague-Dawley rats; conditions: cream 2.5% topically twice daily; for tumor growth: 4 weeks, ovariectomized rats given E2 1 μg/rat daily; for average tumor number after 28 days of treatment: 1.2 ± 0.15 at the beginning, control 4.3 ± 1.2
Description: Fig. 8 The effects of sterols on the DMBA-induced mammary carcinoma in rats. At an age of 50–54 days, female Sprague-Dawley rats were dosed intragastrically with 20 mg DMBA. when at least one tumor measuring 1 cm in diameter was found, the rats were ovariectomized and given intramuscular 1 μg/rat E2 daily. Animals were selected for experiments when at least one tumor per rat had reached a diameter of 1.5 cm. The skin covering the tumor was shaved and animals were divided into four groups. […] Untreated tumors served as controls. a Representative images of the tumors. b Tumor growth curve. c Average number of tumor nodules before and after treatment.The data represent six sets of independent experiments and are shown as the means ± SD. *P < 0.05, **P ≤ 0.01 vs. control group
At an age of 50–54 days, female Sprague-Dawley rats were dosed intragastrically with 20 mg DMBA (Sigma Chemical Co.) dissolved in peanut oil (1 ml/rat). Starting at 40 days after DMBA treatment, animals were examined weekly by palpation; when at least one tumor measuring 1 cm in diameter was found, the rats were ovariectomized using ether anesthesia and were given E2 (1 μg/rat) by daily intramuscular injection. Animals were selected for experiments when at least one tumor per rat had reached a diameter of 1.5 cm. Tumors were measured with calipers once a week, and their volume was calculated according to the following formula: volume = length × (width)^2 × 0.5. Rats were then divided into four groups of six animals each. […] All creams were applied for 4 weeks. […] Tumor growth in the control and treated groups was expressed as a value relative to the initial tumor volume, measured on the 1st day of treatment and taken as 1. At the beginning and end of the treatment period, the number of tumor nodules was counted.

ZR-75-1 cells = test: Cell proliferation assay (CCK8), ZR-75-1; type: cell-based, human; conditions: for proliferation of ZR-75-1 cells: 1 nM-10 μM, 6 days, 10% PRF-CT with 1 nM E2; for antiproliferative effect in presence of OH-Flutamide, ZR-75-1: 100 nM compound with 100 nM OH-Flutamide
Description: as §1, §2

MCF-7 cells (AR siRNA) = test: Proliferation of MCF-7 cells after AR downregulation by siRNA; type: cell-based, human; conditions: 100 nM, 72 h
Description: Cells were cultured and treated as described in the legend of Fig. 2. […] Cell growth is expressed as the ratio of the number of cells in the experimental well to that in control wells (untreated cells). The columns represent the mean of three experiments, each with five replicates; bars, SEM. *P ≤ 0.05, **P ≤ 0.01 vs. control
AR siRNA and its control siRNA used in this study were described by Wu et al.. The sequence of the AR siRNA used was 5′-[…]-3′ and a nonspecific siRNA duplex was used as a negative control. Growing cells were switched to PRF for 24 h and then switched to 10% PRF–CT medium containing 1 nM E2 for 48 h. MCF-7 cells were trypsinized and transfected in suspension with 2.5 μg siRNA (siAR or scrambled siRNA) or pcDNA3.1-AR in six-well plates, using Lipofectamine 3000 (Invitrogen) in OPTI-MEM medium (Gibco), following the manufacturer’s instructions.

Compound: C[C@]12CC[C@H]3[C@@H](CCC4=C(O)C(=O)CC[C@@]43C)[C@@H]1CC[C@@H]2O [4-OHT, 4-hydroxytestosterone]
- proliferation of MCF-7 cells (MCF-7 cells): strongly antiproliferative
- antiproliferative effect in presence of OH-Flutamide, MCF-7 (MCF-7 cells): behave like DHT
- tumor growth [1]: shrinkage of the tumor
- appearance of new tumors at end of treatment ([1]; 28 days, vs control): almost did not develop new tumors
- average tumor number after 28 days of treatment [1]: 1.6 ± 0.4 tumors per rat
- proliferation of ZR-75-1 cells (ZR-75-1 cells): inhibits the proliferation of ZR-75-1 cells only at micromolar concentrations
- antiproliferative effect in presence of OH-Flutamide, ZR-75-1 (ZR-75-1 cells): behave like DHT
- inhibition of proliferation after AR downregulation (MCF-7 cells (AR siRNA)): identical results

Compound: C[C@]12CCC(=O)C[C@@H]1CC[C@@H]1[C@@H]2CC[C@]2(C)[C@@H](O)CC[C@@H]12 [DHT, dihydrotestosterone]
- proliferation of MCF-7 cells (MCF-7 cells): inhibits the proliferation of MCF-7 and ZR-75-1 cells at all tested concentrations
- antiproliferative effect in presence of OH-Flutamide, MCF-7 (MCF-7 cells): almost completely abolished
- tumor growth [1]: growth arrest
- average tumor number after 28 days of treatment [1]: 2.25 ± 0.8 tumors per rat
- proliferation of ZR-75-1 cells (ZR-75-1 cells): inhibits the proliferation of MCF-7 and ZR-75-1 cells at all tested concentrations
- antiproliferative effect in presence of OH-Flutamide, ZR-75-1 (ZR-75-1 cells): almost completely abolished
- inhibition of proliferation after AR downregulation (MCF-7 cells (AR siRNA)): AR downregulation diminishes the ability

Compound: C=C1C[C@H]2[C@@H]3CC[C@H](O)[C@@]3(C)CC[C@@H]2[C@@]2(C)C=CC(=O)C=C12 [17-HEXE, 17-hydroexemestane]
- antiproliferative effect in presence of OH-Flutamide, MCF-7 (MCF-7 cells): behave like DHT
- tumor growth [1]: growth arrest
- average tumor number after 28 days of treatment [1]: 2.85 ± 0.68 tumors per rat
- antiproliferative effect in presence of OH-Flutamide, ZR-75-1 (ZR-75-1 cells): behave like DHT
- inhibition of proliferation after AR downregulation (MCF-7 cells (AR siRNA)): identical results
